The source of these data is patent US10689361B2, “Quinoline derivative and use thereof” (priority 2016, dated 2020).

Data set [1] concerns the target VEGFR2 (Homo sapiens, UniProt P35968). As to the kind of experiment: Caliper Mobility Shift Assay, kinase inhibition. The data set is classed as biochemical. The note with it: read-out: Kinase inhibitory activity (IC50, nM) VEGFR2.
Data set [2] addresses VEGFR1 (Homo sapiens, UniProt P17948). The data set can be described thus: Caliper Mobility Shift Assay, kinase inhibition. The data set is classed as biochemical. The note with it: read-out: Kinase inhibitory activity (IC50, nM) VEGFR1.
The nature of data set [3]: Pharmacokinetic property evaluation test in CD-1 mice, intravenous. The data set is classed as in vivo. The following applies: both sexes, mouse, plasma, intravenous injection, 3 mg/kg, single administration, non-compartment model; for half-life: read-out: Terminal t1/2 (converted); for Vd: read-out: Vss. As to the method:
Experimental animals: CD-1 mice, males and females; weight: 20-25 g;
[…] Route of administration: intravenous injection. […] Dosage: 3 mg/kg.
Sample collection: Blood was collected at the following time points: 5 min, 15 min, 30 min, 1 hr, 2 hr, 4 hr, 8 hr, and 24 hr after administration.
Sample analysis: The collected samples were tested using the LC-MS/MS method. The instrument model was API4000.
Pharmacokinetic data analysis: The obtained plasma concentration data were fitted and calculated according to the non-compartment model using WinNolin, and some results are summarized in Table 2.

In data set [4] the target is PDGFRβ (Homo sapiens, UniProt P09619). As to the kind of experiment: Caliper Mobility Shift Assay, kinase inhibition. The note with it: read-out: Kinase inhibitory activity (IC50, nM) PDGFRβ. The data set is classed as biochemical.
Data set [5] has as its target FGFR1 (Homo sapiens, UniProt P11362). The data set can be described thus: Caliper Mobility Shift Assay, kinase inhibition. The data set is classed as biochemical. The following applies: read-out: Kinase inhibitory activity (IC50, nM) FGFR1.
Data set [6] concerns the target PDGFRα (Homo sapiens, UniProt P16234). As to the kind of experiment: Caliper Mobility Shift Assay, kinase inhibition. The data set is classed as biochemical. The note with it: read-out: Kinase inhibitory activity (IC50, nM) PDGFRα.
In data set [7] the target is T1, FLT3 (Homo sapiens, UniProt P36888).
T1 sequence (P36888 27-993): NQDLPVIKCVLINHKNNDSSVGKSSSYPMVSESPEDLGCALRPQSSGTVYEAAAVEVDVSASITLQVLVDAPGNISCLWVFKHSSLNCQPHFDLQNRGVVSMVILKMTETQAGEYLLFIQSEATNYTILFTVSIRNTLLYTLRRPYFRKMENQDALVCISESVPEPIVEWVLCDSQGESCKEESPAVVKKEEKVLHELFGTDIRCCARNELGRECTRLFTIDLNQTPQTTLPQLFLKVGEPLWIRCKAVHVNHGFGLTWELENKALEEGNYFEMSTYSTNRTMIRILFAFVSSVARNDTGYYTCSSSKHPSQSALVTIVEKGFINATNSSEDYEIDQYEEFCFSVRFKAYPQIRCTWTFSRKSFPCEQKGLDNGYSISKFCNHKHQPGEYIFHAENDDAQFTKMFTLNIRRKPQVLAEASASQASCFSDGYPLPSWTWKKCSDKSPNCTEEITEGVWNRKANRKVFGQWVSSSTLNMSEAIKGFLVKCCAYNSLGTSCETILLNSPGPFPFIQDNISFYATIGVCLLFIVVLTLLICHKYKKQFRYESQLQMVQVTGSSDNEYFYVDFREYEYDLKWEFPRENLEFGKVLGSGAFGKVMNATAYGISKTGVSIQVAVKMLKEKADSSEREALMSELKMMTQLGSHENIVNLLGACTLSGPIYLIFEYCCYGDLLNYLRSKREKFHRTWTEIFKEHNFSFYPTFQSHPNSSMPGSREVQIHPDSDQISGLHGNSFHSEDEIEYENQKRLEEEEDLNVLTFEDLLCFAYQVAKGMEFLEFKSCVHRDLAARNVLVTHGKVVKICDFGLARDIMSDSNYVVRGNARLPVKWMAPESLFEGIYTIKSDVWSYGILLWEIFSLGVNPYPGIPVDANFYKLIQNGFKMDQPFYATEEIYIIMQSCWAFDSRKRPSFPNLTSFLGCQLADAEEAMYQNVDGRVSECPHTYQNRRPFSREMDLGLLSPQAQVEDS
As to the kind of experiment: Caliper Mobility Shift Assay, kinase inhibition. The note with it: read-out: Kinase inhibitory activity (IC50, nM) FLT3. The data set is classed as biochemical.

In data set [8] the target is EGFR (Homo sapiens, UniProt P00533). The data set can be described thus: Caliper Mobility Shift Assay, kinase inhibition. The data set is classed as biochemical. The note with it: read-out: Kinase inhibitory activity (IC50, nM) EGFR. The protocol: (§1) The semi-inhibitory concentration IC50 (the concentration of the compound required to inhibit the enzymatic activity to 50%) of a compound was measured by mixing a fixed enzyme with a specific substrate and the test compound of different concentrations. The test method used was Caliper Mobility Shift Assay, the kinases tested were VEGFR1, VEGFR2, VEGFR3, FLT3, PDGFRα, PDGFRβ, FGFR1, RET, EGFR and IGF1R, and the standard reference compound used was staurosporine.

The target of data set [9] is IGF1R (Homo sapiens, UniProt P08069). As to the kind of experiment: Caliper Mobility Shift Assay, kinase inhibition. The data set is classed as biochemical. The following applies: read-out: Kinase inhibitory activity (IC50, nM) IGF1R. As to the method:
as §1

Data set [10] has as its target VEGFR3 (Homo sapiens, UniProt P35916). As to the kind of experiment: Caliper Mobility Shift Assay, kinase inhibition. The data set is classed as biochemical. The note with it: read-out: Kinase inhibitory activity (IC50, nM) VEGFR3.
The target in data set [11] is RET (Homo sapiens, UniProt P07949). As to the kind of experiment: Caliper Mobility Shift Assay, kinase inhibition. The data set is classed as biochemical. The note with it: read-out: Kinase inhibitory activity (IC50, nM) RET.
RET, sequence (P07949 29-1114, species assumed): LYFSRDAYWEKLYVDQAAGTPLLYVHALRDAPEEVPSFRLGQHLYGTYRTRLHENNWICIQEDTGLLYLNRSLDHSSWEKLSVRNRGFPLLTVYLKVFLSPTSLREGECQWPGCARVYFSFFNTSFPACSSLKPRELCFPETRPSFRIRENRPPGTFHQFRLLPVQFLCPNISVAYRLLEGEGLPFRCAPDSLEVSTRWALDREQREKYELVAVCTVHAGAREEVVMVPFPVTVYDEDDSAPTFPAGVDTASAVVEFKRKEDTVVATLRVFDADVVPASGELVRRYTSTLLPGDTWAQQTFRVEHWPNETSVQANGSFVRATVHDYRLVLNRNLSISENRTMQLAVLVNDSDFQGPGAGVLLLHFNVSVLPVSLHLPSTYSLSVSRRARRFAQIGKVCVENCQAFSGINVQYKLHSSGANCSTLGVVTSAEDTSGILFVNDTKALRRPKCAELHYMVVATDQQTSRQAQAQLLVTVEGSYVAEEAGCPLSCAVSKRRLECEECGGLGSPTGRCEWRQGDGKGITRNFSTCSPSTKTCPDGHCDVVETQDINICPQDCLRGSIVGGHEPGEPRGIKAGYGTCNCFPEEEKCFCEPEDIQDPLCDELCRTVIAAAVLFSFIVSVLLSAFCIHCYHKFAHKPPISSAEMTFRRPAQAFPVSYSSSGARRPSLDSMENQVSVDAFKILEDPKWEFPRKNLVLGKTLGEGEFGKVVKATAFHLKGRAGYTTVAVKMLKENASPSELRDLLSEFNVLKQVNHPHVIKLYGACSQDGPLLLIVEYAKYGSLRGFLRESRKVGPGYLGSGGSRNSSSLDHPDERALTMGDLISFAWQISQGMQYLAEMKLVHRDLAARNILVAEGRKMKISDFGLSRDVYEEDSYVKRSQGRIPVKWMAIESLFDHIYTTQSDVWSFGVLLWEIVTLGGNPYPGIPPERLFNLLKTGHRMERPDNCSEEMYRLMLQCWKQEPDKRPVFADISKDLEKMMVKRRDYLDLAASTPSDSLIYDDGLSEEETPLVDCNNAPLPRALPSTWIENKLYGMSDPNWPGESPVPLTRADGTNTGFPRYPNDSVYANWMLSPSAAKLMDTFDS

VEGFR1, sequence (P17948 27-1338, species assumed): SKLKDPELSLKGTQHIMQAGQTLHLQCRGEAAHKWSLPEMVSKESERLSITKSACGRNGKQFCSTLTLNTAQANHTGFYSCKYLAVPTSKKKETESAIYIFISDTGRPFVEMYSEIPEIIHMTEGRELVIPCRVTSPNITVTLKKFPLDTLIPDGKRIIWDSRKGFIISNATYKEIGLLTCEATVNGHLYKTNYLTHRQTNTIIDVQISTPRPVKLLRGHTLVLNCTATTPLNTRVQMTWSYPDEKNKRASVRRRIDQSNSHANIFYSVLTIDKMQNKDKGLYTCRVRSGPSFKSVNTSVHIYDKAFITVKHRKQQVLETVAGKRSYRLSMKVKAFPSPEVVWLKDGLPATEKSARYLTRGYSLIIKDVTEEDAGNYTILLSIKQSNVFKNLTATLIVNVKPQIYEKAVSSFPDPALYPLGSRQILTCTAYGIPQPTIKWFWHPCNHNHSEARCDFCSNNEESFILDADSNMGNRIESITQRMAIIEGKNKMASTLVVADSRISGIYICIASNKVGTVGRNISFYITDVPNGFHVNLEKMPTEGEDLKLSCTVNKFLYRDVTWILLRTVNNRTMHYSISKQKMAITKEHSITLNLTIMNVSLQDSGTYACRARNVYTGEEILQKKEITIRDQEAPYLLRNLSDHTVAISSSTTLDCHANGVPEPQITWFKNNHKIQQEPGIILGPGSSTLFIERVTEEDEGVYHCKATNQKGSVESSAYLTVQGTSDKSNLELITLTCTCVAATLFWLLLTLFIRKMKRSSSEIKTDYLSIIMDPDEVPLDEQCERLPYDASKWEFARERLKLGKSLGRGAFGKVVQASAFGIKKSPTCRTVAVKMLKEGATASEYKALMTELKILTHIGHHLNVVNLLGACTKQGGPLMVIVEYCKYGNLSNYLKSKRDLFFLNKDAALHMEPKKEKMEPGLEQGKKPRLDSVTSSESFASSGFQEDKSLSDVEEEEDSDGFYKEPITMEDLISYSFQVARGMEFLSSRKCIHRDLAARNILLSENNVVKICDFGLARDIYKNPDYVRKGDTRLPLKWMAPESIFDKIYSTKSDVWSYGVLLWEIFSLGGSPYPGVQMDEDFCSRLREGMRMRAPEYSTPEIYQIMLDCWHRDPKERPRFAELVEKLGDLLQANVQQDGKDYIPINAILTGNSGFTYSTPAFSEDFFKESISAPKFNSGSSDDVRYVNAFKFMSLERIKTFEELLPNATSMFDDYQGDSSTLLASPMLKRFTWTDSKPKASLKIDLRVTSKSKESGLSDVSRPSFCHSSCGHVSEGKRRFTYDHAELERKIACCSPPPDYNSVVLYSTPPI
VEGFR2, sequence (P35968 20-1356, species assumed): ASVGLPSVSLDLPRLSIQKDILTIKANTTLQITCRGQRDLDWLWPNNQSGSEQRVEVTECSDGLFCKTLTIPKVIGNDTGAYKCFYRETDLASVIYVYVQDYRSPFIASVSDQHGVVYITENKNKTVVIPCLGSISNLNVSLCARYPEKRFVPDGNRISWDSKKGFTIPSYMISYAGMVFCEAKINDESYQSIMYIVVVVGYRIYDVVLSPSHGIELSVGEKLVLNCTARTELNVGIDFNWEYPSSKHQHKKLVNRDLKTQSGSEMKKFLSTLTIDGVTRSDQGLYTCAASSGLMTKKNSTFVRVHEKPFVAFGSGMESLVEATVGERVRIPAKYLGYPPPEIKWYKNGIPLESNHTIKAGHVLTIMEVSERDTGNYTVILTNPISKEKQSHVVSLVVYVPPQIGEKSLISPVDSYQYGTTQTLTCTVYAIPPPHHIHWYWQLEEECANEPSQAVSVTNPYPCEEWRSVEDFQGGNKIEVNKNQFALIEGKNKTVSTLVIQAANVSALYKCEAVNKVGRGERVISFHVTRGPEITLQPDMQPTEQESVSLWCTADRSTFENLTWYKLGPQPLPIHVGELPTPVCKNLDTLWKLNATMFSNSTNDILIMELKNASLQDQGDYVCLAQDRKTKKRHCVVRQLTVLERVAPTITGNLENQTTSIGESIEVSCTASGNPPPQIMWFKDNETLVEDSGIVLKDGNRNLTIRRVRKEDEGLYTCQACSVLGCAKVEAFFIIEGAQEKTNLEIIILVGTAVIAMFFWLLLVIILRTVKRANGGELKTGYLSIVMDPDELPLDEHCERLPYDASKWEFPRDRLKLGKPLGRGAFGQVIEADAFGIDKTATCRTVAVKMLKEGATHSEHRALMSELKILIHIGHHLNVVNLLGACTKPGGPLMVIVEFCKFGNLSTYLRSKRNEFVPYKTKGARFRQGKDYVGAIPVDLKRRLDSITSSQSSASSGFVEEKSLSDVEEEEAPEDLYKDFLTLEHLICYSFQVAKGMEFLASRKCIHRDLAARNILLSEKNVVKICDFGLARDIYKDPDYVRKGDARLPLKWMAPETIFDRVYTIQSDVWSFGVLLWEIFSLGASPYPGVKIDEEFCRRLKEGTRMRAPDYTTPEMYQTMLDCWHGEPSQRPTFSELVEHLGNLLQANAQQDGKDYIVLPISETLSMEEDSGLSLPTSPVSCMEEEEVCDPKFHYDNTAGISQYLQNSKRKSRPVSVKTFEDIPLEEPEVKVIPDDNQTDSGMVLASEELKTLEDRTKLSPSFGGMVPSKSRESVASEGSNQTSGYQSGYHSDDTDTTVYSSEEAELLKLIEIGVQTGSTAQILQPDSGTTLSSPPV
VEGFR3, sequence (P35916 25-1363, species assumed): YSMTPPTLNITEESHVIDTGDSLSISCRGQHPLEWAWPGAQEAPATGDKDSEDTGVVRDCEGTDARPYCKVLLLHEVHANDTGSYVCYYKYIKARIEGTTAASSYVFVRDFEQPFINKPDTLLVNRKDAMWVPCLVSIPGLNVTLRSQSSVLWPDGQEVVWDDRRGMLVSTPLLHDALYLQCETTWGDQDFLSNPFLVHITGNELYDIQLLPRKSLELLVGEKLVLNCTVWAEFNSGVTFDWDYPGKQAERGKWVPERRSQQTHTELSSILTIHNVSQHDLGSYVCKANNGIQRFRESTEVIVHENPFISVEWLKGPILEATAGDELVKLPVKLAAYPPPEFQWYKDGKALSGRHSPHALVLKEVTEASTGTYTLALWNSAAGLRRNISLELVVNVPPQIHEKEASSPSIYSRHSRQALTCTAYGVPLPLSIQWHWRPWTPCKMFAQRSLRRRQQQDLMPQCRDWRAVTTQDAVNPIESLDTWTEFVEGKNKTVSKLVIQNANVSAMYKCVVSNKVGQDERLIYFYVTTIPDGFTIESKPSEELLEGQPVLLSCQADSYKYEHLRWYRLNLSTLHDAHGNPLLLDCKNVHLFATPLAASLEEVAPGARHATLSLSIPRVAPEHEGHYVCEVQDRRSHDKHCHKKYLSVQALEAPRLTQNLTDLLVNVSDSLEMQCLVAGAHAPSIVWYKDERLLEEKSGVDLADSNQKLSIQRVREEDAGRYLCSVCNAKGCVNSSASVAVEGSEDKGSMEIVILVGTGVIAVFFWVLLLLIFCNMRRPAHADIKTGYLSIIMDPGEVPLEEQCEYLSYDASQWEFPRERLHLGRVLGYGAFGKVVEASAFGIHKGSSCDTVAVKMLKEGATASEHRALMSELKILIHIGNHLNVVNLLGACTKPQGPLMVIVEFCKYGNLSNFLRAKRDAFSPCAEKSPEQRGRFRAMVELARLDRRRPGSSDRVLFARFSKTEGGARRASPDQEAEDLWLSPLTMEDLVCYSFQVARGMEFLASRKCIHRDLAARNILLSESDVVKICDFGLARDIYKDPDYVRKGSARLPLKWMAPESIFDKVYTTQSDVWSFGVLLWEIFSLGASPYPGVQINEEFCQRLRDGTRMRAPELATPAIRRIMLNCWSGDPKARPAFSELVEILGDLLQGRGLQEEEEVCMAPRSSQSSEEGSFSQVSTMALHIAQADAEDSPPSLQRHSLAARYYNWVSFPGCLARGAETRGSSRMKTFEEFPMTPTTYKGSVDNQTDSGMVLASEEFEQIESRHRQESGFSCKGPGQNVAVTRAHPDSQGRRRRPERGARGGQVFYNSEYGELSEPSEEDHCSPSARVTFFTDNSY

For the compound `COc1cc2nccc(Oc3ccc(NC(=O)Nc4cnn(C)c4)cc3F)c2cc1C(N)=O` [Compound of Formula Ib], the IC50 in [1] was 3 nM; in [2] it was 555 nM; in [4], 165 nM; in data set [5] it was > 1000 nM; in [6] it was 37 nM; in [7] it was 890 nM. For the same compound, the IC50 in data set [8] was > 200000 nM; in data set [9] it was > 200000 nM; in data set [10], 84 nM; in data set [11], 290 nM. The compound also had an AUC(0-t) in [3] of 1600 ng·h/mL. In [3], this compound registered an MRT inf of 49.2 min. The clearance in data set [3] is 30.5 mL/min/kg. The half-life in [3] is 134 min. The Vd in data set [3] turned out to be 1.48 L/kg.
For `CNC(=O)c1cc(Oc2ccc(NC(=O)Nc3ccc(Cl)c(C(F)(F)F)c3)c(F)c2)ccn1` [Regorafenib, regorafenib, reference compound], the values for the IC50 in [8] and in data set [9] were 10600 nM and > 400000 nM, respectively.
For `COc1cc2nccc(Oc3ccc(NC(=O)Nc4cn[nH]c4)cc3F)c2cc1C(N)=O` [Compound of Formula Ic], the IC50 was 11 nM in data set [1]; 831 nM in data set [2]; 151 nM in [4]; > 1000 nM in data set [5]; 42 nM in data set [6]; 708 nM in data set [7]. Further, the IC50 in [8] is > 200000 nM; in data set [9], > 200000 nM; in data set [10], 34 nM; in [11] it was 204 nM.
`CNC(=O)c1cc2c(Oc3ccc(NC(=O)Nc4cnn(C)c4)cc3F)ccnc2cc1OC` [Compound of Formula Ia]: the IC50 in data set [1] is 2.4 nM; in data set [2], 381 nM; in [4] it was 110 nM; in data set [5] it was > 1000 nM; in data set [6], 27 nM; in data set [7] it was 576 nM. Moreover, the IC50 in data set [8] was > 500000 nM; in data set [9], > 500000 nM; in [10] it was 56 nM; in data set [11], 106 nM. In data set [3], this compound returned an AUC(0-t) of 2040 ng·h/mL. The same compound came in with an MRT inf in data set [3] of 20.4 min. The compound also had a clearance in data set [3] of 25.2 mL/min/kg. The half-life in data set [3] was 28.2 min. For the same compound, in data set [3], the Vd is 0.525 L/kg.

As usually defined, the IC50 is the concentration that gives 50% inhibition. In general, AUC(0-t) refers to the area under the concentration-time curve up to a stated or last time point. Read a low AUC(0-t) as low exposure. Broadly, the MRT inf is a mean duration of stay, worked out from the concentration-time curve. A word on the clearance: it is the volume of plasma or blood freed of the substance per unit of time. Read a high clearance as a high capacity for elimination.
